In US20130059876A1, “LIQUID NASAL SPRAY CONTAINING LOW-DOSE NALTREXONE” (L Molteni & C Dei Fratelli Alitti Societa Di Esercizio S.p.A, priority 2010, published 2013):
Where “and” joins values, the source holds several entries; their conditions need not be identical. Equal values may be shown once.

Tests used:
[1] = system: Spine patients undergoing therapy with morphine by the spinal route; assay: Clinical study: naltrexone in spine patients undergoing therapy with morphine by the spinal route; assay type: in vivo; details: individual patient, ½ hour before epidural load, spinal morphine (average 4.8 mg +/- 0.4 mg)
[2] = system: Oncologic patients receiving therapy with morphine orally; assay: Clinical study: naltrexone in oncologic patients receiving therapy with morphine orally; assay type: in vivo; details: individual patient, ½ hour before oral morphine (average 40 mg +/- 10 mg)
patients = patients (total number 80) before treatment with Naltrexone
[3] = naltrexone 1 mcg every 12 hours
[4] = naltrexone 2.5 mcg every 12 hours
[5] = naltrexone 5 mcg every 12 hours
[6] = naltrexone 0.125 mcg every 12 hours

Compound: O=C1CC[C@@]2(O)[C@H]3Cc4ccc(O)c5c4[C@@]2(CCN3CC2CC2)[C@H]1O5 [Naltrexone, naltrexone]
- Analgesia (%): analgesic efficacy after administration of naltrexone ([1]; naltrexone 1 mg every 12 hours): 95% and 60% and 65%
- Benefit (%): percentage reduction of adverse effects ([1]; naltrexone 1 mg every 12 hours): 65% (2×) and 50%
- Analgesia (%): analgesic efficacy after administration of naltrexone [1, 3]: 65% and 45% (2×)
- Benefit (%): percentage reduction of adverse effects [1, 3]: 65% and 70% and 100%
- Analgesia (%): analgesic efficacy after administration of naltrexone [1, 4]: 45% (2×) and 75% and 60% and 55% (2×) and 90% and 0% and 100% (3×) and 85%
- Benefit (%): percentage reduction of adverse effects [1, 4]: 45% (2×) and 80% (4×) and 60% (3×) and 100% (2×) and 95%
- Analgesia (%): analgesic efficacy after administration of naltrexone [1, 5]: 45% and 100% and 60% (3×) and 35% and 85% and 15%
- Benefit (%): percentage reduction of adverse effects [1, 5]: 70% (2×) and 95% and 50% (3×) and 65% and 30%
- Analgesia (%): analgesic efficacy after administration of naltrexone ([2]; naltrexone 1 mg every 12 hours): 100% (8×) and 90% (2×) and 65% (2×) and 60% (2×) and 70% (3×) and 65%** (3×) and 55% and 75%** and 70%** and 85% (2×) and 45%** and 45%
- Benefit (%): percentage reduction of adverse effects ([2]; naltrexone 1 mg every 12 hours): 90% (3×) and 65% (8×) and 40% (2×) and 70% (4×) and 100% (3×) and 75% and 95% and 0% and 55% and 50% and 80% (2×)
- Analgesia (%): analgesic efficacy after administration of naltrexone [2, 6]: 45% (2×) and 55%** and 65%** and 60%
- Benefit (%): percentage reduction of adverse effects [2, 6]: 65% (3×) and 40% and 100%
- Analgesia (%): analgesic efficacy after administration of naltrexone ([2]; naltrexone 0.125 mcg/day): 60%
- Benefit (%): percentage reduction of adverse effects ([2]; naltrexone 0.125 mcg/day): 100%
- Analgesia (%): analgesic efficacy after administration of naltrexone [2, 4]: 0% and 45% (7×) and 55% (2×) and 60%** and 100% (2×) and 70% and 60% (3×) and 40%
- Benefit (%): percentage reduction of adverse effects [2, 4]: 100% and 80% (5×) and 70% and 50% (3×) and 65% (2×) and 40% and 60% (2×) and 25% and 55% and 90%
- Analgesia (%): analgesic efficacy after administration of naltrexone ([2]; naltrexone 2.5 mcg/day): 60%
- Benefit (%): percentage reduction of adverse effects ([2]; naltrexone 2.5 mcg/day): 90%
- Analgesia (%): analgesic efficacy after administration of naltrexone [2, 5]: 45% (2×) and 55% (5×) and 70% and 100% (3×) and 90% (3×) and 60% (3×) and 65% and 60%** (2×) and 65%** and 55%** and 70%**
- Benefit (%): percentage reduction of adverse effects [2, 5]: 60% (4×) and 0% and 70% and 50% (3×) and 45% (4×) and 85% (2×) and 55% (2×) and 35% and 40% (2×) and 65% and 100% (2×)

Compound: CN1CC[C@]23c4c5ccc(O)c4O[C@H]2[C@@H](O)C=C[C@H]3[C@H]1C5 [morphine]
- Incidence of adverse effects from morphine: Asthenia (patients): 43.3%
- Incidence of adverse effects from morphine: Constipation (patients): 70%
- Incidence of adverse effects from morphine: Dizziness (patients): 13.3%
- Incidence of adverse effects from morphine: Drowsiness (patients): 30%
- Incidence of adverse effects from morphine: Headache (patients): 6.7%
- Incidence of adverse effects from morphine: Inappetence (patients): 46.7%
- Incidence of adverse effects from morphine: Nausea (patients): 53.3%
- Incidence of adverse effects from morphine: Pruritus (patients): 30%
- Incidence of adverse effects from morphine: Vomiting (patients): 53.3%
